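Five compound concentrations were applied to cells in 96-well plates for 48 hours; endpoints were derived by simple linear interpolation of the resulting dose-response curve. TGI marks complete inhibition of growth.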
Tests used:
Experiment in all cases: NCI anticancer screen, dose series, 48 h
EKVX NSCLC = tested on: EKVX NSCLC
LOX IMVI melanoma = tested on: LOX IMVI melanoma
HCC-2998 colon = tested on: HCC-2998 colon
NCI-H23 lung = tested on: NCI-H23 lung
HCT-15 colon = tested on: HCT-15 colon
SK-MEL-5 melanoma = tested on: SK-MEL-5 melanoma
BT-549 breast = tested on: BT-549 breast
SW-620 colon = tested on: SW-620 colon
IGROV1 ovarian = tested on: IGROV1 ovarian
SK-MEL-2 melanoma = tested on: SK-MEL-2 melanoma

Structure (SMILES) | TGI (EKVX NSCLC) [µM] | TGI (LOX IMVI melanoma) [µM] | TGI (HCC-2998 colon) [µM] | TGI (NCI-H23 lung) [µM] | TGI (HCT-15 colon) [µM] | TGI (SK-MEL-5 melanoma) [µM] | TGI (BT-549 breast) [µM] | TGI (SW-620 colon) [µM] | TGI (IGROV1 ovarian) [µM] | TGI (SK-MEL-2 melanoma) [µM]
Cc1nn(-c2ccccn2)c2c1C(SC#N)=C(C=O)CC2 | 36.1 | 29.1 | 24.2 | 32.2 | 34 | 28.2 | 38.9 | 59.3 | 23.7 | 30.5
COC(=O)C1[C@H](C(=O)OC)C1(Br)CBr (stereo partly drawn) | > 100 | > 100 | > 100 | > 100 | > 100 | > 100 | > 100 | > 100 | > 100 | > 100
COC1=CC(=O)c2c(cc(COP(=O)(N(C)CCBr)N(C)CCBr)n2C)C1=O | 6.55 | 3.31 | 1.77 | 2.28 | 2.28 | 2.33 | 3.94 | 7.58 | 19.2 | 4.87
CCOC(=O)c1cc(-c2ccn(C(C)=O)c2)c(-c2cc(C)co2)[nH]1 | > 100 | > 100 | > 100 | > 100 | > 100 | > 100 | > 100 | > 100 | > 100 | > 100
C=C1C(=O)O[C@H]2C/C(C=O)=C\[C@H]3O[C@H]3/C(COC(=O)C(C)C)=C/CC12 (stereo partly drawn) | 29.8 | 11.8 | 27.2 | 20.3 | 9.43 | 22.2 | 24.8 | 6.87 | 18.5 | –
Cc1nnc2sc(-c3ccc([N+](=O)[O-])o3)nn12 | 37.7 | 16.1 | 25 | 34.4 | 18.2 | 24.4 | 22.5 | 23.2 | 29.1 | 24.2
COC(=O)C[C@H](CCSC)NC(=O)C[C@H](CCSC)NC(=O)C[C@H](CCSC)NC(=O)OC(C)(C)C | > 100 | > 100 | > 100 | > 100 | > 100 | > 100 | > 100 | > 100 | > 100 | 64.5
C=C1C(=O)O[C@H]2[C@H]([C@H](C)CCCC(C)=O)O[C@H]([C@@]3(C)CCC(=O)O3)C[C@@H]12 | > 100 | 64.4 | > 100 | > 100 | > 100 | > 100 | > 100 | > 100 | > 100 | > 100
C/C(=C\c1ccccc1)C(=O)NCc1ccc(C(=O)NCCc2c[nH]c3ccccc23)cc1 | > 100 | > 100 | 96.3 | > 100 | > 100 | > 100 | > 100 | > 100 | > 100 | > 100
Cn1c(=O)c2sc3cc4c(cc3c2c2ccccc21)sc1c(=O)n(C)c2ccccc2c14 | > 100 | – | > 100 | > 100 | > 100 | > 100 | 46.4 | > 100 | > 100 | > 100
O=c1/c(=C/c2ccc(-c3ccc(Cl)cc3Cl)o2)sc2n1[C@@H](c1ccc3c(c1)OCO3)C=C(c1cc(F)c(Cl)cc1Cl)N=2 | – | > 100 | – | > 100 | > 100 | > 100 | > 100 | > 100 | > 100 | 71.1
CCOC(=O)c1cn(C)nc1N/C(C)=C\C(=O)c1ccccc1 | > 100 | > 100 | > 100 | > 100 | > 100 | > 100 | > 100 | > 100 | > 100 | –
COC(=O)c1c(C#C[Si](C)(C)C)c(C#C[Si](C)(C)C)c(C#C[Si](C)(C)C)c(C#C[Si](C)(C)C)c1C(=O)OC | > 100 | – | > 100 | > 100 | > 100 | > 100 | > 100 | > 100 | > 100 | > 100
N#Cc1c(-c2ccc(Cl)cc2)cc(-c2nc3ccccc3[nH]2)nc1N | 46.1 | 28 | 14.3 | 35.3 | 36.3 | 20.6 | 30.5 | 42.6 | 22.2 | 25.9
CCOC(=O)CCC(C(=O)OCC)n1nnc2cc(Nc3c(C)[n+]([O-])c4ccc(Cl)cc4[n+]3[O-])ccc21 (stereo not drawn) | 97.1 | > 100 | – | > 100 | > 100 | > 100 | > 100 | > 100 | > 100 | > 100
CCOC(=O)N1C(=S)C(C(=O)OC)(C(=O)OC)N=C1C | > 100 | > 100 | > 100 | > 100 | > 100 | > 100 | > 100 | > 100 | > 100 | > 100
Cc1ccc2c(=O)c(C(=O)N(CCO)CCO)c[nH]c2n1 | > 100 | > 100 | – | > 100 | > 100 | > 100 | > 100 | > 100 | > 100 | > 100
COc1cc(S(=O)(=O)N/N=C/c2cc(Br)c(O)c(OC)c2)c(OC)cc1NC(C)=O | > 100 | > 100 | – | > 100 | > 100 | > 100 | > 100 | > 100 | > 100 | > 100
COc1ccc(C2=NNC(=O)c3ccccc3N2c2nc(-c3cccs3)nc3ccc(Br)cc23)cc1 | 91.5 | > 100 | – | > 100 | > 100 | > 100 | > 100 | > 100 | > 100 | > 100
COC(=O)C1=C(C)NC2(C)OC(C)(O)C(C(C)=O)C12C(C)=O (stereo not drawn) | > 100 | > 100 | – | > 100 | > 100 | > 100 | > 100 | > 100 | > 100 | 54.6
Cc1cccc(C(O)c2cccnc2)c1O (stereo not drawn) | > 100 | > 100 | > 100 | > 100 | > 100 | > 100 | > 100 | > 100 | > 100 | –
